Data: patent US5002948A, “3-[4-[4-substituted-1-piperazinyl]-1-butyl]-1H-2,3-dihydroindoles” (H. Lundbeck A/S, priority 1988, dated 1991)

Experiments:
Type in all cases: in vivo, Male Wistar rats
[1] = target: T1, 5-HT1A (Rattus norvegicus, UniProt P19327); assay: Inhibition of 5-methoxy-N,N-dimethyltryptamine (5-MeODMT) induced 5-HT syndrome in rats; design: Male Wistar rats (Mol:Wist) weighing 170-240 g are used; from tissue; host or cells: whole living animal, male Wistar rats (Mol:Wist), s.c. dosing; details: rat, sc
T1 sequence (P19327 1-422): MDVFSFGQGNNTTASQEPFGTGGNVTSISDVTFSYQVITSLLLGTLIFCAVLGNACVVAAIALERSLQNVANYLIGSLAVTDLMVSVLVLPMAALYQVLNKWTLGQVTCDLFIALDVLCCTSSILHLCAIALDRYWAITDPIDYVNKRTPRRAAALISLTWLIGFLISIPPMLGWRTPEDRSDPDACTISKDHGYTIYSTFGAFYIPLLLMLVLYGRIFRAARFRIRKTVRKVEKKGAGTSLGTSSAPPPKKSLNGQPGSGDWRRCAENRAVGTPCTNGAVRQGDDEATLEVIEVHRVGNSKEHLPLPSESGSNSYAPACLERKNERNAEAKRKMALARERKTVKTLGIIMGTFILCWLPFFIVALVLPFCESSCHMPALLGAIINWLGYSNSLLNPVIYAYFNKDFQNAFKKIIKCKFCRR
Description: INHIBITION OF 5-METHOXY-N,N-[…] INDUCED 5-HT SYNDROME IN RATS
The so-called 5-HT syndrome is a characteristic behaviour pattern which is induced by 5-HT agonists with effects on 5-HT, possibly 5-HT1A receptors, although lack of specific antagonists make it difficult to evaluate specificity (Smith, L. M. and S. J. Peroutka, Pharmacol. Biochem. & Behaviour 24, 1513-1519, 1986; Tricklebank, M. et al., Eur. J. Pharmacol. 117, 15-24, 1985).
Male Wistar rats (Mol:Wist) weighing 170-240 g are used. Test substrate is injected subcutaneously 30 min. before 5-methoxy-N,N-dimethyltryptamine 5 mg/kg, s.c. Four rats are used for each dose. A control group pretreated with saline is included each test day. Ten, 15 and 20 min later the rats are observed for presence of serotonin (5-HT) syndrome: (1) forepaw treading ("piano playing"), (2) head weaving and (3) hindleg abduction. Further, flat motility is scored. Each part of the syndrome is scored as follows: marked effect (score 2), weak syndrome (score 1) and no effect (score 0). The scores of the three observation times are added. Thus the maximum obtainable score for four rats is 24. The effect of the test substance is expressed as per cent inhibition relative to the control group.
The per cent inhibition of the piano playing syndrome is used as the response, and ED50 values are calculated by log-prohibit analysis.

[2] = target: T1, 5-HT1A; assay: Generalization to discriminative stimulus properties induced by 8-OHDPAT in rats (agonism); design: from tissue; host or cells: whole living animal, male Wistar rats, s.c. dosing; details: rat, sc, usually 30 or 45 min before test; substituted for 8-OHDPAT; per cent drug response; read-out: ED50, 8-OH DPAT cue agonism
Description: GENERALIZATION TO DISCRIMINATIVE STIMULUS PROPERTIES INDUCED BY 8-OHDPAT IN RATS.
This test model is used to determine the agonist effects of a test compound on 5-HT1A receptors in vivo. A related method is described by Tricklebank, M. D., J. Neill, E. J. Kidd and J. R. Fozard, Eur. J. Pharmacol. 133, 37-56, 1987; Arnt, J., Pharmacology & Toxicology 64, 165-172, 1989.
The procedure is the same as for the antagonism test mentioned above, except that the test compound is substituted for 8-OHDPAT and injected s.c. usually 30 minutes or 45 minutes respectively before beginning of the test.
The per cent drug response obtained for each dose of test compound is used to calculate ED50 values by log-probit analysis.

[3] = target: T1, 5-HT1A; assay: Antagonism of the discriminative stimulus properties induced by 8-OHDPAT in rats; design: from tissue; host or cells: whole living animal, male Wistar rats, s.c. dosing; details: rat, sc, s.c. before 8-OHDPAT; rats trained at 0.4 mg/kg i.p.; inhibition of drug responding; read-out: ED50, 8-OH DPAT cue antagonism
Description: ANTAGONISM OF THE DISCRIMINATIVE STIMULUS PROPERTIES INDUCED BY 8-OHDPAT IN RATS.
This test model is used to determine the antagonist effects of a test compound on 5-HT1A receptors in vivo. A related method is described by Tricklebank, M. D., J. Neill, E. J. Kidd and J. R. Fozard, Eur. J. Pharmacol. 133, 47-56, 1987; Arnt. J., Pharmacology & Toxicology 64, 165-172, 1989.
Male Wistar rats are trained to discriminate between 8-OHDPAT (0.4 mg/kg, i.p., 15 min. pretreatment) and physiological saline in operant chambers equipped with two response levers. Between the levers a dipper is placed, where water rewards (0.1 ml) are presented. The rats are water deprived for at least 24 h and work in a fixed ratio (FR) schedule (final FR=32).
Following 8-OHDPAT administration responding is reinforced only on a designated (drug) lever, whereas responding on the opposite lever has no consequences. Following saline administration responding is reinforced on the lever opposite to the drug lever. Drug and saline trials alternate randomly between training days, although the same treatment is given maximally at 3 consecutive days. The level of discrimination occuracy is expressed as the per cent drug responses and is calculated as the number of correct responses×100 divided by the sum of the correct and incorrect responses before the first reward. When stable occuracy (mean correct responding=90 per cent; individual rats at least 75 per cent correct responding) is obtained test sessions are included between training days. Test compound is injected s.c. at appropriate time before 8-OHDPAT and the test begins 15 min after 8-OHDPAT injection. The test trial is terminated when a total of 32 responses are made on either lever or when 20 min have elapsed. No reward is given and the rats have free access to water for 20-30 min after the test. The effects are expressed as per cent inhibition of drug responding. Only results from rats making at least 10 responses on one lever are included in data analysis. Furthermore, only test sessions in which at least half of the rats respond are included.
The per cent inhibition of drug response obtained for each dose of test compound is used to calculate ED50 values by log-probit analysis.

Q: What does the source list for `O=C1CC2(CCCC2)CC(=O)N1CCCCN1CCN(c2ncccn2)CC1` [buspirone, reference compound]?
A: ED50 [1]: 4.3 µmol/kg; ED50 [2]: 0.62 µmol/kg; ED50 [3]: > 0.8 µmol/kg
